Results: patent US9670231B2, “Fused tricyclic amide compounds as multiple kinase inhibitors” (BEIGENE, LTD., priority 2013, dated 2017)

Key:
Format in all cases: biochemical
wild type B-Raf = wild type B-Raf (Homo sapiens (Human), UniProt P15056); assay: WT BRaf IC50 assay, TR-FRET; parameters: Braf-WT Km ATP, % at 100 nM: scale not given here; conditions: for IC50: Km ATP ([…] ATP), read-out: IC50 Braf-WT Km ATP; for Braf-WT Km ATP, % at 100 nM: at 100 nM compound
Experimental: WT BRaf IC50 Assay Protocol
Compounds disclosed herein were tested against wild type B-Raf (PV3848, from Invitrogen) in a time-resolved fluorescence energy transfer assay. […] The enzyme was incubated with the compounds disclosed herein at room temperature for 120 minutes and the reactions were initiated by the addition of ATP and GST-MEK1. After incubating at room temperature for 60 minutes, an equal volume of stop buffer containing 25 mM Tris pH7.4, 400 mM KF, 50 mM EDTA, 0.1% BSA, 0.01% Triton X-100, 1 test of Eu3+Cryptate-conjugated rabbit polyclonal antibody anti-Phospho MEK1/2 (Ser217/221) and 1 test of d2-conjugated mouse monoclonal antibody anti-glutathione S-transferase was added to stop the reactions. Plates were sealed and incubated at room temperature for 1.5 hours, and then the TR-FRET signals were read on BMG PHERAstar FS instrument. The IC50 for each compound was calculated by non linear regression by Graphpad Prism software.

B-Raf (V600E) = B-Raf (V600E) (Homo sapiens (Human), UniProt P15056, V600E); assay: Raf IC50 assay, TR-FRET, B-Raf (V600E); conditions: 0.1 mM ATP; read-out: IC50 BRAF-V600E
Experimental: The enzyme was incubated with the compounds disclosed herein at room temperature for 60 minutes and the reactions were initiated by the addition of ATP and GST-MEK1. After reaction at room temperature for 60 minutes, an equal volume of stop/detection solution was added according to the manufacture's instruction (CisBio Bioassays). […] The IC50 for each compound was derived from fitting the dose-response % inhibition data to the four-parameter logistic model by Graphpad Prism software.

WT EGFR kinase domain = WT EGFR kinase domain (Homo sapiens (Human), UniProt P00533); assay: EGFR enzymatic assay, TR-FRET, WT EGFR
Experimental: (§1) Compounds disclosed herein were tested against WT EGFR kinase domain (aa.669-1210, Carna Biosciences, 08-115), EGFR T790M/L858R kinase domain (aa.669-1210, Carna Biosciences, 08-510) and EGFR L858R kinase domain (aa.669-1210, Carna Biosciences, 08-502) in assays based on time-resolved fluorescence-resonance energy transfer methodology. The assay was carried out in 384-well low volume black plate in a reaction mixture containing EGFR kinases, 20 LM for EGFR WT and T790M/L858R, and 125 LM for EGFR L858R), biotin-TK substrate and 0-5 LM compounds in buffer containing 50 mM HEPES pH7.5, 10 mM MgCl2, 1 mM EGTA, 0.01% Brij-35, 2.5 mM DTT, 0.1% BSA. The kinase was incubated with the compounds disclosed herein at room temperature for 120 minutes and the reaction was initiated by the addition of ATP and biotin-TK substrate. After reaction at room temperature for 30 minutes, an equal volume of stop/detection solution was added according to the manufacture's instruction (CisBio Bioassays). The stop/detection solution contained TK-Antibody-Cryptate and Streptavidin-XL665 in buffer containing 25 mM Tris pH7.4, 400 mM KF, 50 mM EDTA, 0.01% BSA, 0.01% Triton X-100. Plates were sealed and incubated at room temperature for 1 hour, and the TR-FRET signals were read on BMG PHERAstar FS instrument. The IC50 of an inhibitor was derived from fitting the % inhibition data at each compound concentration to the four-parameter logistic equation by Graphpad Prism software.

EGFR L858R kinase domain = EGFR L858R kinase domain (Homo sapiens (Human), UniProt P00533, L858R); assay: EGFR enzymatic assay, TR-FRET, EGFR L858R
Experimental: as §1

[1] = molecular target: EGFR T790M/L858R kinase domain (Homo sapiens (Human), UniProt P00533, L858R/T790M); assay: EGFR enzymatic assay, TR-FRET, EGFR T790M/L858R
Experimental: as §1

WT EGFR kinase domain, sequence (P00533 669-1210): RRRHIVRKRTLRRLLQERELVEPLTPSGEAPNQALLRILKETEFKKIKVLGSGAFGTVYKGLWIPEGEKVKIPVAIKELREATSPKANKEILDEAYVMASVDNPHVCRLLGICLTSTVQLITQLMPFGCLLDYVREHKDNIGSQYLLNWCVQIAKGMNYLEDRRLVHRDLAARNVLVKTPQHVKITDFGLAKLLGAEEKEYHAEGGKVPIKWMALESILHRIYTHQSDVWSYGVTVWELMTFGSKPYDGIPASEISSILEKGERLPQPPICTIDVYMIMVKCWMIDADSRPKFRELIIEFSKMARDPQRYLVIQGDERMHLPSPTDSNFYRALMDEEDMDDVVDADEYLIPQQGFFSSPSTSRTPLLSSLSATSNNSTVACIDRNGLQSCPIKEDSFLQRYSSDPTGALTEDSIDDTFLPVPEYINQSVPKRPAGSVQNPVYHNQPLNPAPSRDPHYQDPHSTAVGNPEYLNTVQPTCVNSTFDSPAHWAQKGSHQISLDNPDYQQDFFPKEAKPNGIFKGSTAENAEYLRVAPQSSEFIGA
wild type B-Raf, sequence (P15056 whole entry): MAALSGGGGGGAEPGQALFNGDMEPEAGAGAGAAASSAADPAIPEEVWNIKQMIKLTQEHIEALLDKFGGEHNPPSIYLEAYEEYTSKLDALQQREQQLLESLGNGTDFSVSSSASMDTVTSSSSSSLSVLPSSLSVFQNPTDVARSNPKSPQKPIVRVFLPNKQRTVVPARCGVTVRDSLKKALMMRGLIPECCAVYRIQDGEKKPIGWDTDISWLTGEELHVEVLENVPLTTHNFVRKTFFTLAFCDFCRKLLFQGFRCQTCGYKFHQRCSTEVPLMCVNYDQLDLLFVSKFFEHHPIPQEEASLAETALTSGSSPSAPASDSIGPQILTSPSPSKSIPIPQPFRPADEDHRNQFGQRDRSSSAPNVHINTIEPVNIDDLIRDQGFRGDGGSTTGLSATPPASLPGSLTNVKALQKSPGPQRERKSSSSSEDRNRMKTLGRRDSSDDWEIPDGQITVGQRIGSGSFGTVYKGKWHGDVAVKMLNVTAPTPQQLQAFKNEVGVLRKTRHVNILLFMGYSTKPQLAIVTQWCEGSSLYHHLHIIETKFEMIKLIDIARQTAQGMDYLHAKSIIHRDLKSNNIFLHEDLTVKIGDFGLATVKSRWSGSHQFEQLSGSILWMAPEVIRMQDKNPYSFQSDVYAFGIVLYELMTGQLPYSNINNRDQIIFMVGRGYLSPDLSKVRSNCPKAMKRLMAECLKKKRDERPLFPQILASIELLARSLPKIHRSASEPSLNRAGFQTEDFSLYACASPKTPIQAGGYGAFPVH
EGFR T790M/L858R kinase domain, sequence (P00533 669-1210 T790M/L858R): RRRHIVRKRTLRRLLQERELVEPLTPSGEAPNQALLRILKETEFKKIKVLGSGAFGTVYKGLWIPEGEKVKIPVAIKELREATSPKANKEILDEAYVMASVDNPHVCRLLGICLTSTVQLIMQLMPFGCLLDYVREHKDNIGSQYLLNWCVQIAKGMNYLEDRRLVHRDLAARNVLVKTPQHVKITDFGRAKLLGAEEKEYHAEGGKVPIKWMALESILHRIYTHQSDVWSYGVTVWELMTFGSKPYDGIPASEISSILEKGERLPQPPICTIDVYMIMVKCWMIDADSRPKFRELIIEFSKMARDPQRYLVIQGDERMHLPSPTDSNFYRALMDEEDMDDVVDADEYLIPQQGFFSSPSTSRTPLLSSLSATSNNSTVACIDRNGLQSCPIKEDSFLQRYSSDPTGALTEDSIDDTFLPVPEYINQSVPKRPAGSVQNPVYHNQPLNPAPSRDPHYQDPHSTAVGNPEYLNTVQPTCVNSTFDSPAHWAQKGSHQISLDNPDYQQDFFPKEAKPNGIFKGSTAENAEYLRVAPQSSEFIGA
EGFR L858R kinase domain, sequence (P00533 669-1210 L858R): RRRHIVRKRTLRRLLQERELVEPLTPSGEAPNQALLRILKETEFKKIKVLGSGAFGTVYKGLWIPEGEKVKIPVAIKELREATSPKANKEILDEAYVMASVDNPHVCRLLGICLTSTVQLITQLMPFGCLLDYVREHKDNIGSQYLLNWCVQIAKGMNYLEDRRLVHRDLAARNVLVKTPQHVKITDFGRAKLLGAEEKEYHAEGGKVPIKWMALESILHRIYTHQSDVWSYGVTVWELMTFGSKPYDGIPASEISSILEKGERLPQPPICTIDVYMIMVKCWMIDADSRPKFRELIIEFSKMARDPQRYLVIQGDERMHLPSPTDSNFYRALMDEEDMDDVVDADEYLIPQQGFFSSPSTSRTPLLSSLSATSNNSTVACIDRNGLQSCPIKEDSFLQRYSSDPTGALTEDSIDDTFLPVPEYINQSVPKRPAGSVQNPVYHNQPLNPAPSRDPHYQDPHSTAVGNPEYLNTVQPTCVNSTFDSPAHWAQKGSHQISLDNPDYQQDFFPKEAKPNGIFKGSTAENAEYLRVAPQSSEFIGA
B-Raf (V600E), sequence (P15056 whole entry V600E): as the sequence (P15056 whole entry) above, with V600E counted along it

Row | Structure (SMILES) | IC50 (wild type B-Raf) [nM] | Braf-WT Km ATP, % at 100 nM (wild type B-Raf) [% at 100 nM] | IC50 (B-Raf (V600E)) [nM] | IC50 (WT EGFR kinase domain) [nM] | IC50 (EGFR L858R kinase domain) [nM] | IC50 [1] [nM]
1 | CN(C)[C@H]1CCN(Cc2ccc(C(=O)N[C@@H]3[C@H]4Oc5ccc(Oc6ccnc7c6CCC(=O)N7)cc5[C@@H]34)cc2C(F)(F)F)C1 [Compound 1.9] | 32 | – | – | – | – | –
2 | CN(C)C1CCN(Cc2ccc(C(=O)N[C@@H]3[C@H]4Oc5ccc(Oc6ccnc7c6CCC(=O)N7)cc5[C@@H]34)cc2C(F)(F)F)CC1 [Compound 1.20] | 16 | – | – | – | – | –
3 | O=C1CCc2c(Oc3ccc4c(c3)[C@H]3[C@H](NC(=O)c5ccc(F)cc5)[C@H]3O4)ccnc2N1 [Compound 1.36] | – | 96 | 1.4 | 93 | 60 | 538
4 | Cc1cccc(F)c1C(=O)N[C@@H]1[C@H]2Oc3ccc(Oc4ccnc5c4CCC(=O)N5)cc3[C@@H]12 [Compound 1.37] | – | 80 | 7.5 | 1240 | 529 | > 5000
5 | O=C1CCc2c(Oc3ccc4c(c3)[C@H]3[C@H](NC(=O)c5ccccc5F)[C@H]3O4)ccnc2N1 [Compound 1.38] | – | 84 | 4.7 | 425 | 79 | 3190
6 | O=C1CCc2c(Oc3ccc4c(c3)[C@H]3[C@H](NC(=O)c5ccc(F)c(F)c5)[C@H]3O4)ccnc2N1 [Compound 1.41] | – | 100 | 1.2 | 59 | 29 | 648
7 | O=C1CCc2c(Oc3ccc4c(c3)[C@H]3[C@H](NC(=O)c5ccc(C(F)(F)F)c(F)c5)[C@H]3O4)ccnc2N1 [Compound 1.42] | – | 102 | 9.2 | – | – | –
8 | O=C1CCc2c(Oc3ccc4c(c3)[C@H]3[C@H](NC(=O)c5ccccc5C(F)(F)F)[C@H]3O4)ccnc2N1 [Compound 1.44] | – | 93 | 4.8 | 243 | 63 | > 5000
9 | O=C1CCc2c(Oc3ccc4c(c3)[C@H]3[C@H](NC(=O)c5cc(C(F)(F)F)ccn5)[C@H]3O4)ccnc2N1 [Compound 1.45, N-((1S,1aS,6bS)-5-((7-oxo-5,6,7,8-tetrahydro-1,8-naphthyridin-4-yl)oxy)-1a,6b-dihydro-1H-cyclopropa[b]benzofuran-1-yl)-4-(trifluoromethyl)picolinamide] | – | 101 | 3.1 | 8.5 | 5.4 | 104
10 | CN1CCN(CCOc2ccc(C(=O)N[C@@H]3[C@H]4Oc5ccc(Oc6ccnc7c6CCC(=O)N7)cc5[C@@H]34)cc2C(F)(F)F)CC1 [Compound 1.52] | 15 | – | – | – | – | –
11 | CCCCCCCCCC(=O)N[C@@H]1[C@H]2Oc3ccc(Oc4ccnc5c4CCC(=O)N5)cc3[C@@H]12 [Compound 1.70] | – | – | 24 | 628 | 230 | 1300
12 | CN(C)C1CCN(c2ccc(C(=O)N[C@@H]3[C@H]4Oc5ccc(Oc6ccnc7c6CCC(=O)N7)cc5[C@@H]34)cc2C(F)(F)F)CC1 [Compound 1.71] | – | – | 10 | 2.7 | 2.1 | 21
13 | COc1cc(C(=O)N[C@@H]2[C@H]3Oc4ccc(Oc5ccnc6c5CCC(=O)N6)cc4[C@@H]23)ccc1CN1CCN(C)CC1 [Compound 1.72] | – | – | 7.7 | 3 | 1 | 32
14 | CCN1CCN(Cc2ccc(C(=O)N[C@@H]3[C@H]4Oc5ccc(Oc6ccnc7c6CCC(=O)N7)cc5[C@@H]34)cc2OC)CC1 [Compound 1.73] | – | – | 6.9 | 1.8 | 0.91 | 34
15 | CCN1CCC(Cc2ccc(C(=O)N[C@@H]3[C@H]4Oc5ccc(Oc6ccnc7c6CCC(=O)N7)cc5[C@@H]34)cc2C(F)(F)F)CC1 [Compound 1.74, 4-((1-ethylpiperidin-4-yl)methyl)-N-((1S,1aS,6bS)-5-((7-oxo-5,6,7,8-tetrahydro-1,8-naphthyridin-4-yl)oxy)-1a,6b-dihydro-1H-cyclopropa[b]benzofuran-1-yl)-3-(trifluoromethyl)benzamide] | – | – | 10 | 0.74 | 0.17 | 0.2
16 | CCN1CCC(=Cc2ccc(C(=O)N[C@@H]3[C@H]4Oc5ccc(Oc6ccnc7c6CCC(=O)N7)cc5[C@@H]34)cc2C(F)(F)F)CC1 [Compound 1.75, 4-((1-ethylpiperidin-4-ylidene)methyl)-N-((1S,1aS,6bS)-5-((7-oxo-5,6,7,8-tetrahydro-1,8-naphthyridin-4-yl)oxy)-1a,6b-dihydro-1H-cyclopropa[b]benzofuran-1-yl)-3-(trifluoromethyl)benzamide] | – | – | 21 | 1.3 | 0.26 | 0.18
17 | O=C1CCc2c(Oc3ccc4c(c3)[C@H]3[C@H](NC(=O)c5ccc(CO)c(C(F)(F)F)c5)[C@H]3O4)ccnc2N1 [Compound 1.76, 4-(hydroxymethyl)-N-((1S,1aS,6bS)-5-((7-oxo-5,6,7,8-tetrahydro-1,8-naphthyridin-4-yl)oxy)-1a,6b-dihydro-1H-cyclopropa[b]benzofuran-1-yl)-3-(trifluoromethyl)benzamide] | – | – | 3.7 | 4.2 | 18 | 31
18 | CCN1CCN(Cc2ccc(C(=O)N[C@@H]3[C@H]4Oc5ccc(Oc6ccnc7c6CCC(=O)N7)cc5[C@@H]34)cc2OC(F)(F)F)CC1 [Compound 1.78, 4-((4-ethylpiperazin-1-yl)methyl)-N-((1S,1aS,6bS)-5-((7-oxo-5,6,7,8-tetrahydro-1,8-naphthyridin-4-yl)oxy)-1a,6b-dihydro-1H-cyclopropa[b]benzofuran-1-yl)-3-(trifluoromethoxy)benzamide] | – | – | 10 | 1.2 | 0.79 | 8
19 | CNC(=O)c1cc(Oc2ccc3c(c2)[C@H]2[C@H](NC(=O)c4ccc(CN5CCN(C)CC5)c(C(F)(F)F)c4)[C@H]2O3)ccn1 [Compound 2.4] | – | – | 49 | 6.8 | 4.1 | 7.3
20 | CCN1CCN(Cc2ccc(C(=O)N[C@@H]3[C@H]4Oc5ccc(Oc6ccnc(N)c6)cc5[C@@H]34)cc2C(F)(F)F)CC1 [Compound 2.5, N-((1S,1aS,6bS)-5-((2-aminopyridin-4-yl)oxy)-1a,6b-dihydro-1H-cyclopropa[b]benzofuran-1-yl)-4-((4-ethylpiperazin-1-yl)methyl)-3-(trifluoromethyl)benzamide] | – | – | 58 | 4.1 | 0.47 | 0.82
21 | CCN1CCN(Cc2ccc(C(=O)N[C@@H]3[C@H]4Oc5ccc(Oc6ccnc7c6CNC(=O)N7)cc5[C@@H]34)cc2C(F)(F)F)CC1 [Compound 2.6, 4-((4-ethylpiperazin-1-yl)methyl)-N-((1S,1aS,6bS)-5-((2-oxo-1,2,3,4-tetrahydropyrido[2,3-d]pyrimidin-5-yl)oxy)-1a,6b-dihydro-1H-cyclopropa[b]benzofuran-1-yl)-3-(trifluoromethyl)benzamide] | – | – | 17 | 0.43 | 0.085 | 0.076
22 | CN1CCN(Cc2ccc(C(=O)N[C@@H]3[C@H]4Oc5ccc(Oc6ccnc7c6CNC(=O)N7)cc5[C@@H]34)cc2C(F)(F)F)CC1 [Compound 2.7] | – | – | 16 | 0.67 | 0.15 | 0.084
